Where two headings read alike, the source gives them in different places.

This passage reports IC50 results from US11759455B2, “Substituted 1H-imidazo[4,5-b]pyridin-2(3H)-ones and their use as GLUN2B receptor modulators” (JANSSEN PHARMACEUTICA NV, priority 2016, dated 2023).

In this assay the target is T1, human GluN1/GluN2B NMDA receptors (Homo sapiens, UniProt Q13224).
T1 construct: expressed in transfected cells
Kind of assay: Cell-based calcium flux (FLIPR) assay on cloned human NR1/NR2B ion channels expressed in mammalian cells (standard and HTS buffer variants).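 Note: stable Tet-On inducible cell line, Ca2+ influx triggered by glutamate at about EC40 plus 10 µM glycine, fluorescent dye read-out over 5 min, normalized to control wells.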

[1] abbreviates: standard assay buffer (0.5 mM MgCl2 in dye loading buffer; 137 mM NaCl, 4 mM KCl in assay buffer), human GluN1/GluN2B, read-out: NR2B IC50 (μM) standard assay.
The mark [2] stands for this setting: standard assay buffer (0.5 mM MgCl2 dye loading; 137 mM NaCl, 4 mM KCl assay buffer), human GluN1/GluN2B cells, read-out: NR2B IC50 (μM) standard assay.
[3] abbreviates: HTS assay buffer (1.5 mM MgCl2 in dye loading buffer; 150 mM NaCl, 3 mM KCl in assay buffer), human GluN1/GluN2B, read-out: NR2B IC50 (μM) HTS assay.

T1 sequence (Q13224 27-1484, other chains not shown): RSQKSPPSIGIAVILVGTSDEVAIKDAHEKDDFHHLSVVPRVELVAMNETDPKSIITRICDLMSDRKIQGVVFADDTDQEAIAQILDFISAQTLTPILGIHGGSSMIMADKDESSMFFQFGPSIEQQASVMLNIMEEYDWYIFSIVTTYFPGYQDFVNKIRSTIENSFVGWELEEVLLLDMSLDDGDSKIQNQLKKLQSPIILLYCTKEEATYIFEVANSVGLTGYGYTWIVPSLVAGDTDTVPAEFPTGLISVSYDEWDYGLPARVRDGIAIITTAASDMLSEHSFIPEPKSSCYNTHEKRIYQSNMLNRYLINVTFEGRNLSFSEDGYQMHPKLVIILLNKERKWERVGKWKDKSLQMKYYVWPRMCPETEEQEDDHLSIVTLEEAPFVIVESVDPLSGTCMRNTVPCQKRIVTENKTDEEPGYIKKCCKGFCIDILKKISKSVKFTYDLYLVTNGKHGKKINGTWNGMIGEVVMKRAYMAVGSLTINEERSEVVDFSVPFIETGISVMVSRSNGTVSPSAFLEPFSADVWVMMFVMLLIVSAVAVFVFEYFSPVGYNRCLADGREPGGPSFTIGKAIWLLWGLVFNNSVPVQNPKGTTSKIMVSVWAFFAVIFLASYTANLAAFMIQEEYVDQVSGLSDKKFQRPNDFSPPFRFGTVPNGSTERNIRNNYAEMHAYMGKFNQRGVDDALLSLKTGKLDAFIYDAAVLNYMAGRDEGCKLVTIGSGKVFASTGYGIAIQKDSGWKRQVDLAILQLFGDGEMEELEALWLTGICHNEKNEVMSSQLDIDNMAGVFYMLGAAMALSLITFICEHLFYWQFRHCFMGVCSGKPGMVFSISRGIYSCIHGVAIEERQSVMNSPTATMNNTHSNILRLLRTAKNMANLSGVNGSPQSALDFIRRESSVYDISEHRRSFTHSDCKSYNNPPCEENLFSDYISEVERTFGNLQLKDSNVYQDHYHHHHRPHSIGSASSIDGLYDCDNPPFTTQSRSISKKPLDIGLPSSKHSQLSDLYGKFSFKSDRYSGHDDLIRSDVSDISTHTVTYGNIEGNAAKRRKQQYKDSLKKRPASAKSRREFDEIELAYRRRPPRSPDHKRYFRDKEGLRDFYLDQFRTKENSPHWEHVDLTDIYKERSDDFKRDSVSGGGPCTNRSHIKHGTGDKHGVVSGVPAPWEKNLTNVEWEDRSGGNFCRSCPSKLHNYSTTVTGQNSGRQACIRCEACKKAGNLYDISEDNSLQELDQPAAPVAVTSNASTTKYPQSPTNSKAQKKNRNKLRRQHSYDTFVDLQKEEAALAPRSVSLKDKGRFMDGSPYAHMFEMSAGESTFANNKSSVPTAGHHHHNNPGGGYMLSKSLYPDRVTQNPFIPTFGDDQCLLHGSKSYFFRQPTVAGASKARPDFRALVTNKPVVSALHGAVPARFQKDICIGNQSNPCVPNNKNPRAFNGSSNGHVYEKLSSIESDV

Consider `Cn1c(=O)n(Cc2csnn2)c2cc(-c3ccc(F)c(F)c3)cnc21` [Example 545, 6-(3,4-Difluorophenyl)-3-methyl-1-(thiadiazol-4-ylmethyl)imidazo[4,5-b]pyridin-2-one], for which, under setting [1], the IC50 amounted to 0.512 µM.

For `CN(C)C(=O)Cn1c(=O)n(C)c2ncc(-c3csc(C(F)F)c3)cc21` [Example 97, 2-[6-[5-(Difluoromethyl)-3-thienyl]-3-methyl-2-oxo-imidazo[4,5-b]pyridin-1-yl]-N,N-dimethyl-acetamide], the IC50 under setting [2] came out at 0.015 µM.

As for `Cc1noc(Cn2c(=O)[nH]c3ncc(-c4ccc(F)c(F)c4)cc32)n1` [Example 143, 6-(3,4-Difluorophenyl)-1-[(3-methyl-1,2,4-oxadiazol-5-yl)methyl]-3H-imidazo[4,5-b]pyridin-2-one], under setting [2], the IC50 was 0.075 µM.

As for `Cn1c(=O)n(Cc2cccnn2)c2cc(-c3ccc(F)c(C(F)F)c3)cnc21` [Example 541, 6-[3-(Difluoromethyl)-4-fluoro-phenyl]-3-methyl-1-(pyridazin-3-ylmethyl)imidazo[4,5-b]pyridin-2-one], the IC50 under setting [1] worked out at 0.022 µM.

Turning to `Cc1ccncc1Cn1c(=O)[nH]c2ncc(-c3cccc(F)c3)cc21` [Example 276, 6-(3-Fluorophenyl)-1-[(4-methyl-3-pyridyl)methyl]-3H-imidazo[4,5-b]pyridin-2-one], the IC50 under setting [2] turned out to be 0.034 µM.

With `Cc1cc(-c2cnc3[nH]c(=O)n(Cc4cccnc4)c3c2)ccc1F` [Example 294, 6-(4-Fluoro-3-methyl-phenyl)-1-(3-pyridylmethyl)-3H-imidazo[4,5-b]pyridin-2-one], under setting [2], the IC50 was 0.023 µM.

In the case of `N#Cc1cccc(Cn2c(=O)[nH]c3ncc(-c4cccc(C(F)(F)F)c4)cc32)c1` [Example 212, 3-[[2-Oxo-6-[3-(trifluoromethyl)phenyl]-3H-imidazo[4,5-b]pyridin-1-yl]methyl]benzonitrile], the IC50 under setting [2] was 0.123 µM.

With `Cc1noc(Cn2c(=O)n(C)c3ncc(-c4ccc(F)c(C)c4F)cc32)n1` [Example 573, 6-(2,4-Difluoro-3-methyl-phenyl)-3-methyl-1-[(3-methyl-1,2,4-oxadiazol-5-yl)methyl]imidazo[4,5-b]pyridin-2-one], the half-maximal inhibitory concentration (IC50) under setting [1] was 0.043 µM.

As to `Cc1cc(F)ccc1-c1cnc2[nH]c(=O)n(CC(=O)N(C)C3CC3)c2c1` [Example 40, N-Cyclopropyl-2-[6-(4-fluoro-2-methyl-phenyl)-2-oxo-3H-imidazo[4,5-b]pyridin-1-yl]-N-methyl-acetamide], the IC50 (HTS assay buffer (1.5 mM MgCl2 dye loading; 150 mM NaCl, 3 mM KCl assay buffer), human GluN1/GluN2B cells, read-out: NR2B IC50 (μM) HTS assay) was found to be 1.82 µM.

For the molecule `O=c1[nH]c2ncc(-c3ccc(F)c(F)c3)cc2n1Cc1cccnc1` [Example 292, 6-(3,4-Difluorophenyl)-1-(3-pyridylmethyl)-3H-imidazo[4,5-b]pyridin-2-one], the IC50 under setting [2] turned out to be 0.06 µM.

For the molecule `Cn1c(=O)n(CC(=O)N2CCC2)c2cc(-c3cnc(C(F)(F)F)s3)cnc21` [Example 115, 1-[2-(Azetidin-1-yl)-2-oxo-ethyl]-3-methyl-6-[2-(trifluoromethyl)thiazol-5-yl]imidazo[4,5-b]pyridin-2-one], the IC50 under setting [2] was 0.82 µM.

As to `Cn1c(=O)n(Cc2cccnc2)c2cc(-c3ccc(C(F)(F)F)s3)cnc21` [Example 364, 3-Methyl-1-(3-pyridylmethyl)-6-[5-(trifluoromethyl)-2-thienyl]imidazo[4,5-b]pyridin-2-one], the IC50 under setting [1] is 0.168 µM.

Turning to `Cn1ccc(Cn2c(=O)[nH]c3ncc(-c4ccc(F)cc4)cc32)n1` [Example 128, 6-(4-Fluorophenyl)-1-[(1-methylpyrazol-3-yl)methyl]-3H-imidazo[4,5-b]pyridin-2-one], the IC50 under setting [2] stood at 5.16 µM.

Turning to `Cc1c(F)ccc(-c2cnc3c(c2)n(CC(=O)N(C)C)c(=O)n3CF)c1F` [Example 599, 2-[6-(2,4-Difluoro-3-methyl-phenyl)-3-(fluoromethyl)-2-oxo-imidazo[4,5-b]pyridin-1-yl]-N,N-dimethyl-acetamide], under setting [1], the IC50 came out at 0.025 µM.

With `COc1cccc(-c2cnc3[nH]c(=O)n(Cc4ccccc4C#N)c3c2)c1` [Example 485, 2-[[6-(3-Methoxyphenyl)-2-oxo-3H-imidazo[4,5-b]pyridin-1-yl]methyl]benzonitrile], the IC50 under setting [1] worked out at 0.031 µM.

Consider `Cc1cccc(C)c1-c1cnc2[nH]c(=O)n(CCN3CCC3)c2c1` [Example 157, 1-[2-(Azetidin-1-yl)ethyl]-6-(2,6-dimethylphenyl)-3H-imidazo[4,5-b]pyridin-2-one], for which the IC50 under setting [2] is 1.97 µM.

With `CNC(=O)Cn1c(=O)[nH]c2ncc(-c3cc(C)cc(C)c3)cc21` [Example 438, 2-[6-(3,5-Dimethylphenyl)-2-oxo-3H-imidazo[4,5-b]pyridin-1-yl]-N-methyl-acetamide], under setting [3], the IC50 worked out at 0.394 µM.

On to `Cc1c(F)ccc(-c2cnc3c(c2)n(Cc2csnn2)c(=O)n3C)c1F` [Example 576, 6-(2,4-Difluoro-3-methyl-phenyl)-3-methyl-1-(thiadiazol-4-ylmethyl)imidazo[4,5-b]pyridin-2-one], for which the IC50 under setting [1] was determined as 0.05 µM.

As to `O=C(Cn1c(=O)[nH]c2ncc(-c3cccc(C(F)(F)F)c3)cc21)C1CCC1` [Example 262, 1-(2-cyclobutyl-2-oxo-ethyl)-6-[3-(trifluoromethyl)phenyl]-3H-imidazo[4,5-b]pyridin-2-one], under setting [2], the IC50 was determined as 0.308 µM.

`Cc1cc(-c2cnc3c(c2)n(Cc2cncc(Cl)c2)c(=O)n3C)sc1Cl` [Example 372, 6-(5-Chloro-4-methyl-2-thienyl)-1-[(5-chloro-3-pyridyl)methyl]-3-methyl-imidazo[4,5-b]pyridin-2-one]: the concentration for half-maximal inhibition (IC50) under setting [1] is 6.64 µM.

On to `Cc1cccc(-c2cnc3c(c2)n(Cc2cccnn2)c(=O)n3C)c1` [Example 379, 3-Methyl-6-(m-tolyl)-1-(pyridazin-3-ylmethyl)imidazo[4,5-b]pyridin-2-one], for which the IC50 under setting [1] came to 0.033 µM.

For the molecule `Cc1cncc(Cn2c(=O)[nH]c3ncc(-c4ccc(F)c(F)c4)cc32)c1` [Example 272, 6-(3,4-Difluorophenyl)-1-[(5-methyl-3-pyridyl)methyl]-3H-imidazo[4,5-b]pyridin-2-one], the IC50 under setting [2] was 0.034 µM.

In the case of `Cc1nnc(Cn2c(=O)n(C)c3ncc(-c4ccc(C)s4)cc32)o1` [Example 554, 3-Methyl-1-[(5-methyl-1,3,4-oxadiazol-2-yl)methyl]-6-(5-methyl-2-thienyl)imidazo[4,5-b]pyridin-2-one], the IC50 under setting [1] was 0.533 µM.

In the case of `COc1ccc(-c2cnc3[nH]c(=O)n(Cc4ccccc4C#N)c3c2)cc1F` [Example 491, 2-[[6-(3-Fluoro-4-methoxy-phenyl)-2-oxo-3H-imidazo[4,5-b]pyridin-1-yl]methyl]benzonitrile], under setting [1], the IC50 amounted to 0.053 µM.

Regarding `CC(C)c1ccc(Cn2c(=O)[nH]c3ncc(-c4ccc(Cl)cc4)cc32)cc1` [Example 511, 6-(4-Chlorophenyl)-1-[(4-isopropylphenyl)methyl]-3H-imidazo[4,5-b]pyridin-2-one], under setting [3], the IC50 was above 29 µM.

Regarding `O=c1[nH]c2ncc(-c3cccc(Cl)c3)cc2n1Cc1cncc(F)c1` [Example 305, 6-(3-Chlorophenyl)-1-[(5-fluoro-3-pyridyl)methyl]-3H-imidazo[4,5-b]pyridin-2-one], under setting [2], the IC50 worked out at 0.013 µM.

For the molecule `COc1ccc(-c2cnc3[nH]c(=O)n(Cc4cc(C)on4)c3c2)cc1C` [Example 515, 6-(4-Methoxy-3-methyl-phenyl)-1-[(5-methylisoxazol-3-yl)methyl]-3H-imidazo[4,5-b]pyridin-2-one], the IC50 under setting [3] turned out to be 0.156 µM.
